DC50 data for 13 compounds are collected here from US12161722B2, “Bifunctional heterocyclic compound having BTK degradation function via ubiquitin proteasome pathway, and use thereof” (KOREA RESEARCH INSTITUTE OF CHEMICAL TECHNOLOGY, priority 2021, dated 2024).

The target of one assay is T1, WT BTK protein (Homo sapiens, UniProt Q06187).
T1 construct: measured for intracellular BTK protein levels by Western blotting; endogenous in cells; host or cells: TMD-8 or RAMOS cells
As to the kind of experiment: BTK protein degradation assay (Western blotting), WT BTK. It counts as cell-based. As to conditions: concentration range accounting for 50% degradation of WT BTK protein, TMD-8 or RAMOS cells, 24 hours. In short, it runs like this:
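TMD-8 cells (1×10^6 cells/mL) treated 24 h with compound serial dilutions, then lysed in RIPA. Equal protein loads analysed by Western blot for BTK with GAPDH/β-actin as loading controls; activity binned by concentration giving 50% WT BTK degradation.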
(In general: Immunoblotting shows a protein as a band on a membrane.)

Another assay concerns the target T2, C481S BTK protein (Homo sapiens, UniProt Q06187, C481S).
T2 construct: expressed in transfected cells; host or cells: 293T BTK MUT (C481S) cells
As to the kind of experiment: BTK protein degradation assay (Western blotting), C481S BTK. It is filed as cell-based. The conditions noted are these: concentration range accounting for 50% degradation of C481S BTK protein, 293T BTK MUT (C481S) cells. An outline of the steps:
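TMD-8, RAMOS or 293T BTK C481S cells were treated 24 h with compounds from 10-fold DMSO stock series (10 to 0.0001 mM). BTK was measured by Western blot with GAPDH/β-actin references. Activity was binned by concentration giving 50% degradation: +++ (0.0001-0.01 μM), ++ (0.01-1 μM), + (1-10 μM), − (>10 μM).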

Bounds are passed on as bounds.

T1 sequence (Q06187 whole entry): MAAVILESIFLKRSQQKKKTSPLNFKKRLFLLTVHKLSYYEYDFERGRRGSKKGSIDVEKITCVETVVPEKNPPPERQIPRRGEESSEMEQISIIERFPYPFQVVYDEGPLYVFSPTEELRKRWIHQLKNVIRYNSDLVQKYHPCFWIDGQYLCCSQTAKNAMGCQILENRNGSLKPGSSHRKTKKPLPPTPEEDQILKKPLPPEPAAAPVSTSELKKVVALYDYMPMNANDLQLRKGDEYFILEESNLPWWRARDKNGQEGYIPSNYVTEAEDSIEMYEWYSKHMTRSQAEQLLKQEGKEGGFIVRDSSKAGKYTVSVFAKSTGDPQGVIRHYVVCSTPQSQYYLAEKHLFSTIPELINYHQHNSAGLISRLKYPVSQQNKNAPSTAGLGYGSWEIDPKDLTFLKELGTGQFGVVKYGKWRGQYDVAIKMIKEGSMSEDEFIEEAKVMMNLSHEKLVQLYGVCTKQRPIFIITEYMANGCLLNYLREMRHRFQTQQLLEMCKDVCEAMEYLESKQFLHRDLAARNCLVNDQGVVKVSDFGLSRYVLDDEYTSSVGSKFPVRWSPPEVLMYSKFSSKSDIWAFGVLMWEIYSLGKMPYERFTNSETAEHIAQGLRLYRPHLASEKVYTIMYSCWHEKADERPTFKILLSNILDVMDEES
T2 sequence (Q06187 whole entry C481S): as the sequence (Q06187 whole entry) above, with C481S counted along it

The DC50 is the concentration at which degradation of the target reaches its halfway point. For `Cc1cccc(C)c1Nc1nn(C)c2nc(Nc3ccc4c(c3)CN(C[C@H]3CCN(c5ccc6c(c5)C(=O)N(C5CCC(=O)NC5=O)C6=O)C3)CC4)ncc12` (stereo partly drawn) [Compound 144, 5-((R)-3-((7-((3-((2,6-dimethylphenyl)amino)-1-methyl-1H-pyrazolo[3,4-d]pyrimidin-6-yl)amino)-3,4-dihydroisoquinolin-2 (1H)-yl)methyl)pyrrolidin-1-yl)-2-(2,6-dioxopiperidin-3-yl)isoindoline-1,3-dione], the DC50 at WT BTK protein and at C481S BTK protein was 0.1 to 10 nM each time.
Turning to `Cc1cccc(C)c1Nc1nn(C)c2nc(Nc3ccc4c(c3)CN(C(=O)COCCOCCNC(=O)C3CCN(c5cccc6c5C(=O)N(C5CCC(=O)NC5=O)C6=O)CC3)CC4)ncc12` (centres unmarked) [Compound 4, N-(2-(2-(2-(7-((3-((2,6-Dimethylphenyl)amino)-1-methyl-1H-pyrazolo[3,4-d]pyrimidin-6-yl)amino)-3,4-dihydroisoquinolin-2 (1H)-yl)-2-oxoethoxy)ethoxy)ethyl)-1-(2-(2,6-dioxopiperidin-3-yl)-1,3-dioxoisoindolin-4-yl)piperidine-4-carboxamide], the figures for the half-maximal degradation concentration (DC50) on WT BTK protein and at C481S BTK protein were 10 to 1000 nM and 1000 to 10000 nM, respectively.
On the same counts, the results for `Cc1cccc(C)c1Nc1nn(C)c2nc(Nc3ccc4c(c3)CN(C3CCN(c5ccc6c(c5)C(=O)N(C5CCC(=O)NC5=O)C6=O)CC3)CC4)ncc12` (centres unmarked) [Compound 88, 5-(4-(7-((3-((2,6-dimethylphenyl)amino)-1-methyl-1H-pyrazolo[3,4-d]pyrimidin-6-yl)amino)-3,4-dihydroisoquinolin-2 (1H)-yl)piperidin-1-yl)-2-(2,6-dioxopiperidin-3-yl)isoindoline-1,3-dione] are 0.1 to 10 nM and 0.1 to 10 nM.
On the same counts, the results for `Cc1cccc(C)c1Nc1nn(C)c2nc(Nc3ccc4c(c3)CN(C(=O)CCOCCOCCOCCOCCNC(=O)CNc3ccc5c(c3)C(=O)N(C3CCC(=O)NC3=O)C5=O)CC4)ncc12` (centres unmarked) [Compound 22, N-(15-(7-((3-((2,6-dimethylphenyl)amino)-1-methyl-1H-pyrazolo[3,4-d]pyrimidin-6-yl)amino)-3,4-dihydroisoquinolin-2 (1H)-yl)-15-oxo-3,6,9,12-tetraoxapentadecyl)-2-((2-(2,6-dioxopiperidin-3-yl)-1,3-dioxoisoindolin-5-yl)amino)acetamide] are 0.1 to 10 nM and greater than 10000 nM.
On the same counts, the results for `Cc1cccc(C)c1Nc1nn(C)c2nc(Nc3ccc4c(c3)CN(C(=O)C3CCN(c5ccc6nnn(C7CCC(=O)NC7=O)c(=O)c6c5)CC3)CC4)ncc12` (centres unmarked) [Compound 58, 3-(6-(4-(7-((3-((2,6-Dimethylphenyl)amino)-1-methyl-1H-pyrazolo[3,4-d]pyrimidin-6-yl)amino)-1,2,3,4-tetrahydroisoquinoline-2-carbonyl)piperidin-1-yl)-4-oxobenzo[d][1,2,3]triazin-3 (4H)-yl)piperidin-2,6-one] are 0.1 to 10 nM and 10 to 1000 nM.
In the case of `Cc1cccc(C)c1Nc1nn(C)c2nc(Nc3ccc4c(c3)CN(C(=O)COCCOCCNc3ccc5c(c3)C(=O)N(C3CCC(=O)NC3=O)C5=O)CC4)ncc12` (centres unmarked) [Compound 2, 5-((2-(2-(2-(7-((3-((2,6-Dimethylphenyl)amino)-1-methyl-1H-pyrazolo[3,4-d]pyrimidin-6-yl)amino)-3,4-dihydroisoquinolin-2 (1H)-yl)-2-oxoethoxy)ethoxy)ethyl)amino)-2-(2,6-dioxopiperidin-3-yl)isoindoline-1,3-dione], the DC50 on WT BTK protein is 0.1 to 10 nM; at C481S BTK protein it was 10 to 1000 nM.
As to `Cc1cccc(C)c1Nc1nn(C)c2nc(Nc3ccc4c(c3)CN(CCOCCNC(=O)COc3ccc5c(c3)C(=O)N(C3CCC(=O)NC3=O)C5=O)CC4)ncc12` (centres unmarked) [Compound 25, N-(2-(2-(7-((3-((2,6-Dimethylphenyl)amino)-1-methyl-1H-pyrazolo[3,4-d]pyrimidin-6-yl)amino)-3,4-dihydroisoquinolin-2 (1H)-yl)ethoxy)ethyl)-2-((2-(2,6-dioxopiperidin-3-yl)-1,3-dioxoisoindolin-5-yl)oxy)acetamide], the DC50 at WT BTK protein fell in the range of 0.1 to 10 nM; on C481S BTK protein, 1000 to 10000 nM.
On the same counts, the results for `Cc1cccc(C)c1Nc1nn(C)c2nc(Nc3ccc4c(c3)CN(C(=O)CCCCCCCCCCCNc3cccc5c3C(=O)N(C3CCC(=O)NC3=O)C5=O)CC4)ncc12` (centres unmarked) [Compound 7, 4-((12-(7-((3-((2,6-Dimethylphenyl)amino)-1-methyl-1H-pyrazolo[3,4-d]pyrimidin-6-yl)amino)-3,4-dihydroisoquinolin-2 (1H)-yl)-12-oxododecyl)amino)-2-(2,6-dioxopiperidin-3-yl)isoindoline-1,3-dione] are 0.1 to 10 nM and greater than 10000 nM.
The like results for `Cc1cccc(C)c1Nc1nn(C)c2nc(Nc3ccc4c(c3)CN(C(=O)CCOCCOCCOCCOCCNc3ccc5c(c3)C(=O)N(C3CCC(=O)NC3=O)C5=O)CC4)ncc12` (centres unmarked) [Compound 15, 5-((15-(7-((3-((2,6-Dimethylphenyl)amino)-1-methyl-1H-pyrazolo[3,4-d]pyrimidin-6-yl)amino)-3,4-dihydroisoquinolin-2 (1H)-yl)-15-oxo-3,6,9,12-tetraoxapentadecyl)amino)-2-(2,6-dioxopiperidin-3-yl)isoindoline-1,3-dione] were, in that order, 0.1 to 10 nM and 1000 to 10000 nM.
On the same counts, the results for `Cc1cccc(C)c1Nc1nn(C)c2nc(Nc3ccc4c(c3)CN(C3CN(CC5CCN(c6ccc7c(c6)C(=O)N(C6CCC(=O)NC6=O)C7=O)CC5)C3)CC4)ncc12` (centres unmarked) [Compound 149, 5-(4-((3-(7-((3-((2,6-Dimethylphenyl)amino)-1-methyl-1H-pyrazolo[3,4-d]pyrimidin-6-yl)amino)-3,4-dihydroisoquinolin-2 (1H)-yl)azetidin-1-yl)methyl)piperidin-1-yl)-2-(2,6-dioxopiperidin-3-yl)isoindoline-1,3-dione] are 0.1 to 10 nM and 0.1 to 10 nM.
Turning to `Cc1cccc(C)c1Nc1nn(C)c2nc(Nc3ccc4c(c3)CN(CCOCCNC(=O)C3CCN(c5ccc6c(c5)C(=O)N(C5CCC(=O)NC5=O)C6=O)CC3)CC4)ncc12` (centres unmarked) [Compound 21, N-(2-(2-(7-((3-((2,6-Dimethylphenyl)amino)-1-methyl-1H-pyrazolo[3,4-d]pyrimidin-6-yl)amino)-3,4-dihydroisoquinolin-2 (1H)-yl)ethoxy)ethyl)-1-(2-(2,6-dioxopiperidin-3-yl)-1,3-dioxoisoindolin-5-yl)piperidine-4-carboxamide], the DC50 on WT BTK protein fell in the range of 0.1 to 10 nM; on C481S BTK protein, 1000 to 10000 nM.
The like results for `Cc1cccc(C)c1Nc1nn(C)c2nc(Nc3ccc4c(c3)CN(C(=O)CCOCCOCCOCCOCCNC(=O)COc3cccc5c3C(=O)N(C3CCC(=O)NC3=O)C5=O)CC4)ncc12` (centres unmarked) [Compound 17, N-(15-(7-((3-((2,6-Dimethylphenyl)amino)-1-methyl-1H-pyrazolo[3,4-d]pyrimidin-6-yl)amino)-3,4-dihydroisoquinolin-2 (1H)-yl)-15-oxo-3,6,9,12-tetraoxapentadecyl)-2-((2-(2,6-dioxopiperidin-3-yl)-1,3-dioxoisoindolin-4-yl)oxy)acetamide] were, in that order, 0.1 to 10 nM and greater than 10000 nM.
Take `Cc1cccc(C)c1Nc1nn(C)c2nc(Nc3ccc4c(c3)CN(Cc3cn(CCOCCOCCNC(=O)CNc5cccc6c5C(=O)N(C5CCC(=O)NC5=O)C6=O)nn3)CC4)ncc12` (centres unmarked) [Compound 11]: the half-maximal degradation concentration (DC50) at WT BTK protein is 0.1 to 10 nM; at C481S BTK protein, greater than 10000 nM.
